Experimental findings from ChEMBL document CHEMBL5532672, “Discovery of 2-Ethoxy-5-isobutyramido-N-1-substituted Benzamide Derivatives as Selective Kv2.1 Inhibitors with In Vivo Neuroprotective Effects” (J Med Chem, 2024) are described below.

Data set [1] in a line: AUC (0 to infinity) in Sprague-Dawley rat at 5 mg/kg, po measured upto 24 hrs by LC/MS/MS analysis. Type of data set: ADME, organism-based. To be noted: in vivo.
Data set [2] can be described thus: Cmax in Sprague-Dawley rat at 5 mg/kg, po measured upto 24 hrs by LC/MS/MS analysis. Type of data set: ADME, organism-based. To be noted: in vivo.
For data set [3], the target named is Potassium voltage-gated channel subfamily A member 5 (Homo sapiens, UniProt P22460). As to the kind of experiment: Inhibition of KV1.5 (unknown origin) by whole cell patch-clamp assay.
Sequence of Potassium voltage-gated channel subfamily A member 5 (P22460 whole entry): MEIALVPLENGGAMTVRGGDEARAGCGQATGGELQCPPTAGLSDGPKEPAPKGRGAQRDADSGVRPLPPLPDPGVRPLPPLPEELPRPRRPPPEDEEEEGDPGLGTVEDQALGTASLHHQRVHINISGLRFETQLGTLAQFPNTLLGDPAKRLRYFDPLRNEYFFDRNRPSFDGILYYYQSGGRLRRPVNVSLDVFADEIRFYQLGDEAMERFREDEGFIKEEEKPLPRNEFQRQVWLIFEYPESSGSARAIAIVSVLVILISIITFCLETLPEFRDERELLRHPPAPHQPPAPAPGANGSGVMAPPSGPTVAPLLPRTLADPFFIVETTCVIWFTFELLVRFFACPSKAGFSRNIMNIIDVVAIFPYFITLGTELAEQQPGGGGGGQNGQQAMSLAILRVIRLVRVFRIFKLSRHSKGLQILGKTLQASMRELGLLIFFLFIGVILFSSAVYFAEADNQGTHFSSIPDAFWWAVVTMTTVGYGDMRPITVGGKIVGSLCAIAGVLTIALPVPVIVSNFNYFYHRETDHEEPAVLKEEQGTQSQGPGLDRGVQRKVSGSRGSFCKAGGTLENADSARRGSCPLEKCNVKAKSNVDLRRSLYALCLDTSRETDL
Data set [4] is described as follows: Tmax in Sprague-Dawley rat at 5 mg/kg, po measured upto 24 hrs by LC/MS/MS analysis. Type of data set: ADME, organism-based. The settings on record: in vivo.
Data set [5] addresses T1, Voltage-gated potassium channel KCNC1 (Homo sapiens, UniProt P48547).
T1 sequence (P48547 whole entry): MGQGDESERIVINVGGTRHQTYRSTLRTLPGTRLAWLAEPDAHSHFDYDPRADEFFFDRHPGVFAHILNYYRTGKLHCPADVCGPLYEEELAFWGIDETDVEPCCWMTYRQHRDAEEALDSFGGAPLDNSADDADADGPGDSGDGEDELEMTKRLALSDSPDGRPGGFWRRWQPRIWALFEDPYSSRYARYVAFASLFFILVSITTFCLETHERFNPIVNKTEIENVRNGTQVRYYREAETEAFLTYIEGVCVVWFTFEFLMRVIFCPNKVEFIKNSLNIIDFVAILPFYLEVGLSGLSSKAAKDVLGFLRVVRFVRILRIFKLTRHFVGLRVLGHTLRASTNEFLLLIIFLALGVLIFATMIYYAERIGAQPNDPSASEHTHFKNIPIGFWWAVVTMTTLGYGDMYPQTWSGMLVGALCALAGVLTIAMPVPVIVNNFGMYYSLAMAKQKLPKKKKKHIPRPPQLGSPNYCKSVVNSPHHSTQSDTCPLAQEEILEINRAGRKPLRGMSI
As to the kind of experiment: Inhibition of KV3.1 (unknown origin) by whole cell patch-clamp assay.

Data set [6] is described as follows: Brain concentration in rat at 5 mg/kg, po measured after 30 mins. Type of data set: ADME, organism-based. To be noted: read-out: Ct.
Data set [7] can be described thus: AUC (0 to t) in Sprague-Dawley rat at 0.5 mg/kg, iv measured upto 24 hrs by LC/MS/MS analysis. To be noted: in vivo. Type of data set: ADME, organism-based.
Data set [8] in a line: Brain concentration in rat at 1 mg/kg, iv measured after 30 mins. Type of data set: ADME, organism-based. The settings on record: read-out: Ct.
Data set [9] in a line: MRT (0 to infinity) in Sprague-Dawley rat at 5 mg/kg, po measured upto 24 hrs by LC/MS/MS analysis. Type of data set: ADME, organism-based. To be noted: in vivo.
Data set [10] can be described thus: MRT (0 to t) in Sprague-Dawley rat at 5 mg/kg, po measured upto 24 hrs by LC/MS/MS analysis. Type of data set: ADME, organism-based. To be noted: in vivo.
Data set [11] in a line: Brain concentration in rat at 1 mg/kg, iv measured after 15 mins. Type of data set: ADME, organism-based. The settings on record: read-out: Ct.
The subject of data set [12] is HEK293. As to the kind of experiment: Anti-apoptotic activity in HEK293 cells harbouring Kv2.1 assessed as viable cells at 3 uM by annexin-V and propidium staining based flow cytometry analysis (reference value: 99.8%). To be noted: Homo sapiens, read-out: Activity. Type of data set: functional.
For data set [13], the target named is T2, Potassium voltage-gated channel subfamily B member 1 (Homo sapiens, UniProt Q14721).
T2 sequence (Q14721 whole entry): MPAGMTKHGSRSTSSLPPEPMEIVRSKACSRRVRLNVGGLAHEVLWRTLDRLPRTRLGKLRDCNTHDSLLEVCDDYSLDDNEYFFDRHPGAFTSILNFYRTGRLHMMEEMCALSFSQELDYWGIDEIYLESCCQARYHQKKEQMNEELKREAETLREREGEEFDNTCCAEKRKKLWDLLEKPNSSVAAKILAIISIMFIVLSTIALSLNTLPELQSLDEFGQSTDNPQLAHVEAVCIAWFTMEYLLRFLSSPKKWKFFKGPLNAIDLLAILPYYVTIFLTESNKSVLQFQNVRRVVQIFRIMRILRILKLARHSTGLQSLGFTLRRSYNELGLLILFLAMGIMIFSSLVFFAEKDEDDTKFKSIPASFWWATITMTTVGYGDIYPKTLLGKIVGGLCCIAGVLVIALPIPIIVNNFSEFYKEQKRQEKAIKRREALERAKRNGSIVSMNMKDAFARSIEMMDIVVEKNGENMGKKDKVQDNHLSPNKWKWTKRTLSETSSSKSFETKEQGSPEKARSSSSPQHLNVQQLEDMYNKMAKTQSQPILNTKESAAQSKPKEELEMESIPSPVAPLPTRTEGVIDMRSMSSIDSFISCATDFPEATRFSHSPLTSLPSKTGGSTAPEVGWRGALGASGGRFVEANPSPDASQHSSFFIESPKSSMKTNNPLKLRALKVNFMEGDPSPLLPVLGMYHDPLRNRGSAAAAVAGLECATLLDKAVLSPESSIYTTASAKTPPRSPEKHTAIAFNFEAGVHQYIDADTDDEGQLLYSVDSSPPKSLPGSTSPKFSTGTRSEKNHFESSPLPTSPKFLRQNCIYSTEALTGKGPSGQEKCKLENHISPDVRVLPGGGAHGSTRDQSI
As to the kind of experiment: Inhibition of human KV2.1 stably expressed in HEK293 cells by whole cell patch-clamp assay. Type of data set: cell-based.

Data set [14] is described as follows: Plasma concentration in rat at 5 mg/kg, po measured after 30 mins. Type of data set: ADME, organism-based.
Data set [15] in a line: Cmax in Sprague-Dawley rat at 0.5 mg/kg, iv measured upto 24 hrs by LC/MS/MS analysis. Type of data set: ADME, organism-based. The settings on record: in vivo.
Data set [16] in a line: Apparent volume of distribution in Sprague-Dawley rat at […], iv measured upto 24 hrs by LC/MS/MS analysis. Type of data set: ADME, organism-based. To be noted: in vivo, read-out: Vz.
A short description of data set [17]: AUC (0 to t) in Sprague-Dawley rat at 5 mg/kg, po measured upto 24 hrs by LC/MS/MS analysis. Type of data set: ADME, organism-based. The settings on record: in vivo.
Data set [18] is described as follows: Terminal elimination half life in Sprague-Dawley rat at 0.5 mg/kg, iv measured upto 24 hrs by LC/MS/MS analysis. Type of data set: ADME, organism-based. The settings on record: in vivo, read-out: beta t1/2 (converted).
The target in data set [19] is Voltage-gated inwardly rectifying potassium channel KCNH2 (Homo sapiens, UniProt Q12809). As to the kind of experiment: Inhibition of human ERG by whole cell patch-clamp assay. Type of data set: toxicity.
Sequence of Voltage-gated inwardly rectifying potassium channel KCNH2 (Q12809 whole entry): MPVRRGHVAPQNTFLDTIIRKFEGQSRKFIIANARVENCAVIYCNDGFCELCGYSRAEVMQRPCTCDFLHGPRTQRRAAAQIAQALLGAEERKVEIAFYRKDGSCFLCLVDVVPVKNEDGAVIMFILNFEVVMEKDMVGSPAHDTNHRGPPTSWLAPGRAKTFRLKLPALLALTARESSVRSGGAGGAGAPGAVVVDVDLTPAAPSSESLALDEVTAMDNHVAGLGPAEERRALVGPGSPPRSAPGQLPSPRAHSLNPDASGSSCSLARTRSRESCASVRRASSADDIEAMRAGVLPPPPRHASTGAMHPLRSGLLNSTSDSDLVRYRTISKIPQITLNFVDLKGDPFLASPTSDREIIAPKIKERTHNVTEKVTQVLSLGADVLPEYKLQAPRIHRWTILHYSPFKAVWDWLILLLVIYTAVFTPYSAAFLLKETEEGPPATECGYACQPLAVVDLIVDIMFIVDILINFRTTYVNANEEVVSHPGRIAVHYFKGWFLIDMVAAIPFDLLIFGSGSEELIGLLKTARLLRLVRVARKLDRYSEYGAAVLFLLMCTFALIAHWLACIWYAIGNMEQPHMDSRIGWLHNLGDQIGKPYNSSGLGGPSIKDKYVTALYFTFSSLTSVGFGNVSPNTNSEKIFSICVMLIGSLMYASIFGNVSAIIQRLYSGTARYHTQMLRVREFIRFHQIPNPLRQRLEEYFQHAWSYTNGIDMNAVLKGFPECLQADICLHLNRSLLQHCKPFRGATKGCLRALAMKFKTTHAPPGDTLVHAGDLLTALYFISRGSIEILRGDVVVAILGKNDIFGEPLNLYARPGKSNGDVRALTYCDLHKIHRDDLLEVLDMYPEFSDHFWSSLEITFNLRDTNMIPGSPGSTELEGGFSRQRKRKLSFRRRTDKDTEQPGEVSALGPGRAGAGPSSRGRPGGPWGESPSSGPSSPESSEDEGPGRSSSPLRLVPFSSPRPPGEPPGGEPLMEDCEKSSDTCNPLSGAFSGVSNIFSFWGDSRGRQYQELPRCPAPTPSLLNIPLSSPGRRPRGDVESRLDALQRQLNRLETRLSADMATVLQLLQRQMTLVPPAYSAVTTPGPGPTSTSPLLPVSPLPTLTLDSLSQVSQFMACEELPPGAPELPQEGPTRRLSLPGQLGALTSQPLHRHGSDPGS
A short description of data set [20]: Terminal elimination half life in Sprague-Dawley rat at 5 mg/kg, po measured upto 24 hrs by LC/MS/MS analysis. Type of data set: ADME, organism-based. The settings on record: in vivo, read-out: beta t1/2 (converted).
Data set [21] in a line: MRT (0 to infinity) in Sprague-Dawley rat at 0.5 mg/kg, iv measured upto 24 hrs by LC/MS/MS analysis. Type of data set: ADME, organism-based. The settings on record: in vivo.
The nature of data set [22]: AUC (0 to infinity) in Sprague-Dawley rat at 0.5 mg/kg, iv measured upto 24 hrs by LC/MS/MS analysis. Type of data set: ADME, organism-based. The settings on record: in vivo.
Data set [23] in a line: Oral bioavailability in Sprague-Dawley rat at 5 mg/kg measured upto 24 hrs by LC/MS/MS analysis. Type of data set: ADME, organism-based. The settings on record: in vivo.
Data set [24] can be described thus: Plasma concentration in rat at 1 mg/kg, iv measured after 30 mins. Type of data set: ADME, organism-based.
Data set [25] in a line: Clearance in Sprague-Dawley rat at 0.5 mg/kg, iv measured upto 24 hrs by LC/MS/MS analysis. Type of data set: ADME, organism-based. To be noted: in vivo.
Data set [26] relates to HEK293. As to the kind of experiment: Anti-apoptotic activity in HEK293 cells harbouring Kv2.1 assessed as viable cells at 0.3 uM by annexin-V and propidium staining based flow cytometry analysis (reference value: 99.8%). Type of data set: functional. The settings on record: Homo sapiens, read-out: Activity.
Data set [27] in a line: Plasma concentration in rat at 1 mg/kg, iv measured after 15 mins. Type of data set: ADME, organism-based.
For data set [28], the system named is HEK293. As to the kind of experiment: cells. To be noted: Homo sapiens, HEK293, read-out: Activity; at 10 mM.
Description: Anti-apoptotic activity in HEK293 cells harbouring Kv2.1 assessed as viable cells at 10 mM by annexin-V and propidium staining based flow cytometry analysis (Rvb = 99.8% )

Bounds are passed on as bounds.

In the case of `CCOc1ccc(NC(=O)C(C)C)cc1C(=O)NC(C)c1cccc(NC)c1` (stereo not drawn), the figures for the AUC(0-inf) in data set [1] and in [22] were 355 ng·h/mL and 174 ng·h/mL, respectively. The Cmax in data set [2] amounted to 147 ng/mL; in data set [15] it was 693 ng/mL. Further, the IC50 was 9.2 µM in data set [3], over 30 µM in data set [5], 0.07 µM in data set [13] and 30 µM in data set [19]. For the same molecule, the Tmax in data set [4] was found to be 0.65 h. For the same molecule, the concentration at 0.5 h stood at 54.9 ng/g in [6], 14.6 ng/g in [8], 580 ng/mL in [14] and 235 ng/mL in data set [24]. Besides, the AUC(0-t) at 24 h in data set [7] was 174 ng·h/mL; in data set [17], 337 ng·h/mL. Moreover, the MRT inf in data set [9] was found to be 2.52 h; in data set [21], 1.39 h. Further, the MRT last at 24 h in data set [10] came out at 2.05 h. The values for the concentration at 0.25 h in [11] and in data set [27] were 38.2 ng/g and 539 ng/mL, respectively. In addition, the viability at 3 µM in data set [12] was found to be 55.4%. Also, the Vd in data set [16] stood at 2.1 L/kg. For the same molecule, the results for the half-life in data set [18] and in data set [20] were 0.51 h and 1.89 h, respectively. In addition, the bioavailability in data set [23] was found to be 20.4%. In [25], this molecule gave a clearance of 48 mL/min/kg. Besides, in data set [26], the viability at 0.3 µM stood at 62%.

As for `CC[N+](CC)(CC)CC` [TETRYLAMMONIUM], the viability at 10000 µM in [28] is 58.4%.
